Test results as given in PMC8587938 (2021).

Columns and labels:
[1] = tested on: a2 (DNA, G4) GGGGTGTGGGGACAGGGGTGTGGGG; assay: 1H NMR / NOESY titration; settings: K+ 25 mM; K-phosphate buffer, pH 7.0, 25 °C, 2.0 mM a2; terminal stacking on G1-G11-G15-G25 quartet
[2] = tested on: a2^12AP (DNA, G4, 2-aminopurine at 12 (replaces A)) GGGGTGTGGGGACAGGGGTGTGGGG; assay: 2-aminopurine fluorescence quenching titration; settings: K+ 25 mM; K-phosphate buffer, pH 7.0, 20 °C; 30 µM DNA; significant quenching only above ligand–DNA ratio 1
[3] = tested on: a2^14AP (DNA, G4, 2-aminopurine at 14 (replaces A)) GGGGTGTGGGGACAGGGGTGTGGGG; assay: 2-aminopurine fluorescence quenching titration; settings: K+ 25 mM; K-phosphate buffer, pH 7.0, 20 °C; 30 µM DNA; significant quenching only above ligand–DNA ratio 1
[4] = tested on: a2 (DNA, G4) GGGGTGTGGGGACAGGGGTGTGGGG; assay: fluorimetric titration (ligand fluorescence quenching); settings: K+ 25 mM; K-phosphate buffer, pH 7.0, 20 °C; 20 μM ligand

binding [2]: yes
binding [3]: yes
Kb [4]: 1.4 ± 0.2 × 10^6 M^-1
Compound: Cc1cc2c3c([n+](C)c4ccc(F)cc4c3c1)-c1cc(F)ccc1N2C
binding [1]: yes
